Source: PMC5793061, “Functional Expression and Characterization of the Recombinant N-Acetyl-Glucosamine/N-Acetyl-Galactosamine-Specific Marine Algal Lectin BPL3” (Marine Drugs, 2018)

How the values were obtained:
Type in all cases: binding
native BPL3 [1] = target: T1, native BPL3 (Bryopsis plumosa, UniProt A0A1J0CRG2); test: inhibition of hemagglutination, human erythrocytes; conditions: PBS, 4 HU lectin, human type B erythrocytes, two-fold dilutions
T1 construct: native purification from alga by GalNAc-agarose, eluted with GlcNAc; not pure, BPL4 band seen; may consist of 2-6 domains
T1 sequence (A0A1J0CRG2 29-134): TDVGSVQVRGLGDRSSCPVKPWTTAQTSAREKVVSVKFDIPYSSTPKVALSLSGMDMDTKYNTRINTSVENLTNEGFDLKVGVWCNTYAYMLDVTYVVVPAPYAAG
Description: inhibition of hemagglutination, human erythrocytes on native BPL3

rD2BPL3 [2] = target: T2, rD2BPL3 (Bryopsis plumosa, UniProt A0A1J0CRG2); test: inhibition of hemagglutination, human erythrocytes; conditions: PBS, 4 HU lectin, human type B erythrocytes, two-fold dilutions
T2 construct: artificial tandem repeat of two identical BPL3 domains in one chain, 4-residue linker
T2 sequence (A0A1J0CRG2 29-134): T1 sequence (A0A1J0CRG2 29-134)
Description: inhibition of hemagglutination, human erythrocytes on rD2BPL3

rD2BPL3 [3] = target: T2, rD2BPL3; test: glycan microarray, biotinylated lectin, Cy3-streptavidin; conditions: 50 μg/mL lectin; glycan immobilised through spacer
Description: glycan microarray, biotinylated lectin, Cy3-streptavidin on rD2BPL3

native BPL3 [4] = target: T1, native BPL3; test: as above; conditions: 50 μg/mL lectin; glycan immobilised through spacer
Description: glycan microarray, biotinylated lectin, Cy3-streptavidin on native BPL3

Compound	Minimum Inhibitory Concentration / Native BPL3 (native BPL3 [1])	Minimum Inhibitory Concentration / rD2BPL3 (rD2BPL3 [2])	RFU (Normalized) / rD2BPL3 (rD2BPL3 [3])	RFU (Normalized) / Native BPL3 (native BPL3 [4])
CC(=O)N[C@H]1C(O)O[C@H](CO)[C@H](O)[C@@H]1O (stereo partly drawn) [N-acetyl-D-galactosamine]	62.5 mM	31.25 mM		
CC(=O)N[C@H]1C(O)O[C@H](CO)[C@@H](O)[C@@H]1O (stereo partly drawn) [N-acetyl-D-glucosamine]	125 mM	62.5 mM		
D-Cellose-β-Sp1 [compound 87]			1119 RFU	
GlcNAc-β-1,2-Man-α-Sp [compound 45]			1290 RFU	
α-Fuc-Sp [compound 4]			1313 RFU	
α-Man-Sp [compound 3]			1322 RFU	1025 RFU
